The source of these data is patent US20160324738A1, “Oral Compositions Containing Stannous” (The Procter & Gamble Company, priority 2015, published 2016).

A short description of the assay: In-vitro pH cycling study of enamel fluoride uptake (enamel fluoridation). To be noted: both salts at levels providing 1100 ppm of fluoride ion; versus sodium fluoride. On the set-up: species or system human. On the procedure:
An in-vitro pH cycling study was conducted to evaluate the effect of excess metals and its modulation on fluoride uptake in pre-demineralized human enamel specimens.

Turning to `[F][Sn][F]` [stannous fluoride], the enamel fluoridation entry is “less than what is typically seen with sodium fluoride”.
